Tested on: cell line of human leucemic granulocytes (PMN)
Experiment: Respiratory burst: zymosan-triggered release of superoxide anions (ROS) measured with Luminol, with cell numbers
Assay type: cell-based
Conditions: for Cell numbers / Released ROS: compared with the standard (=100), average of triplicate determination; for Released ROS: zymosan-triggered, Luminol
Text: In the course of cutaneous inflammations, leukocytes, such as, for example, the polymorphonuclear neutrophilic granulocytes (PMN), are stimulated by peptides, such as, for example, cytokines, to emit messenger substances, such as, for example, leucotriene, which are released from activated or necrotic cells in the dermis. These activated PMNs release not only proinflammatory cytokins, leucotrienes and proteases, but also ROS, such as, for example, superoxides and hypochlorite anions, which have the task of destroying pathogenic microbes or fungi which have penetrated it. This activity of the PMNs during inflammation is known as respiratory burst and can lead to additional tissue damage. To investigate to what extent the amide is able to prevent or reduce respiratory burst, a cell line of human leucemic granulocytes of these PMNS was incubated together with the test substances at 37° C. from 5% by volume of CO2. After the respiratory burst had been triggered by adding a yeast extract (zymosan) to the cell solution, the release of superoxide anions was determined by means of their reaction with Luminol. The values given are the cell numbers and the amount of released ROS in relative percentages compared with the standard as an average value of a measurement series with triplicate determination.

Cell numbers (0.001 % b.w. active): 104 ± 1 relative percentages
Cell numbers (0.01 % b.w. active): 94 ± 3 relative percentages
Cell numbers (0.1 % b.w. active): 93 ± 1 relative percentages
SMILES: COc1ccc(NC(=O)C2CC(C)CCC2C(C)C)cc1 (centres unmarked) [Menthane carboxylic acid-N-(4-methoxy-phenyl)-amide]
Released ROS (0.001 % b.w. active): 37 ± 25 relative percentages
Released ROS (0.01 % b.w. active): 9 ± 4 relative percentages
Released ROS (0.1 % b.w. active): 8 ± 4 relative percentages
Damage to the granulocytes (summary in words of Table 1): without damaging the granulocytes
Effect on the respiratory burst of human granulocytes (summary in words of Table 1): strong inhibiting effect
